#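 Dose response: 5 concentrations. Exposure: 48 h. Format: 96-well plates. Endpoint: linear interpolation; highest concentration if not reached. GI50 = concentration required for 50% inhibition of growth.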 Calls of active or inactive are those of the source. Rule as the data show it: active = GI50 up to about 1.1 µM and inactive = higher.
# Legend:
# Assay in all cases: inhibition of tumour cell growth, NCI panel, 48 h
# [1] = test system: BT-549
# [2] = test system: COLO 205
# [3] = test system: EKVX
# [4] = test system: HCC 2998
# [5] = test system: MCF7
# [6] = test system: MDA-N
# [7] = test system: NCI/ADR-RES
# [8] = test system: OVCAR-3
# [9] = test system: OVCAR-5
# [10] = test system: OVCAR-8
# [11] = test system: SF-268
# [12] = test system: SN12C
# [13] = test system: T47D
# [14] = test system: TK-10
# [15] = test system: HOP-18
# [16] = test system: KM-20L2
# [17] = test system: LXFL 529
# [18] = test system: M19-MEL
# [19] = test system: DMS-273
# [20] = test system: DLD-1
SMILES,GI50 [1],GI50 [2],GI50 [3],GI50 [4],GI50 [5],GI50 [6],GI50 [7],GI50 [8],GI50 [9],GI50 [10],GI50 [11],GI50 [12],GI50 [13],GI50 [14],GI50 [15],GI50 [16],GI50 [17],GI50 [18],GI50 [19],GI50 [20]
Nc1ccc(S(=O)(=O)c2ccc(NC(=O)c3cccnc3)cc2)cc1,92 µM (inactive),> 100 µM (inactive),64.9 µM (inactive),> 100 µM (inactive),> 100 µM (inactive),> 100 µM (inactive),> 100 µM (inactive),> 100 µM (inactive),> 100 µM (inactive),> 100 µM (inactive),> 100 µM (inactive),> 100 µM (inactive),36.8 µM (inactive),> 100 µM (inactive),–,–,–,–,–,–
C=CCCC(OCOCCOC)c1cc(C)c(O[Si](C)(C)C(C)(C)C)c(C)c1 (configuration not stated),–,16.7 µM (inactive),32.2 µM (inactive),14 µM (inactive),–,–,–,13.6 µM (inactive),17 µM (inactive),19.3 µM (inactive),15.2 µM (inactive),15.6 µM (inactive),–,22 µM (inactive),28.6 µM (inactive),13.2 µM (inactive),22.8 µM (inactive),17.9 µM (inactive),–,–
N#Cc1cnn2ccn(C3OC(COC(=O)c4ccccc4)C(OC(=O)c4ccccc4)C3OC(=O)c3ccccc3)c12 (configuration not stated),> 100 µM (inactive),> 21.5 µM (inactive),> 21.5 µM (inactive),> 21.5 µM (inactive),> 46.5 µM (inactive),> 21.5 µM (inactive),> 21.5 µM (inactive),> 21.5 µM (inactive),> 21.5 µM (inactive),> 46.5 µM (inactive),> 21.5 µM (inactive),> 21.5 µM (inactive),19.1 µM (inactive),> 31.6 µM (inactive),–,–,–,–,–,–
CCO/N=[N+](\[O-])N(CC)CC,–,–,> 100 µM (inactive),> 100 µM (inactive),–,–,–,> 100 µM (inactive),> 100 µM (inactive),> 100 µM (inactive),> 100 µM (inactive),> 100 µM (inactive),–,> 100 µM (inactive),–,> 100 µM (inactive),> 100 µM (inactive),> 100 µM (inactive),> 100 µM (inactive),–
O=C(CN1CCCCC1)Nc1ccc2sc3ccccc3c(=O)c2n1,19.3 µM (inactive),10.8 µM (inactive),22.7 µM (inactive),14.8 µM (inactive),19.5 µM (inactive),13.4 µM (inactive),7.82 µM (inactive),31.5 µM (inactive),18.2 µM (inactive),13.7 µM (inactive),24.2 µM (inactive),12.5 µM (inactive),27.2 µM (inactive),19.1 µM (inactive),–,–,–,–,–,–
Nc1n[n+](-c2ccccc2)no1,–,45.3 µM (inactive),> 100 µM (inactive),17.4 µM (inactive),–,–,–,47.4 µM (inactive),40.7 µM (inactive),80 µM (inactive),42 µM (inactive),82.4 µM (inactive),–,> 100 µM (inactive),–,10.8 µM (inactive),5.26 µM (inactive),46.2 µM (inactive),33.2 µM (inactive),5.7 µM (inactive)
CC[C@@]1(O)C[C@H](OC2CC(N(C)C)C(O)C(C)O2)c2c(O)c3c(c(O)c2[C@H]1OC1CC(N(C)C)C(O)C(C)O1)C(=O)c1cccc(O)c1C3=O (some centres not stated),0.041 µM (active),0.0321 µM (active),0.0984 µM (active),0.0284 µM (active),0.0321 µM (active),0.0363 µM (active),0.177 µM (active),0.051 µM (active),0.0838 µM (active),0.0274 µM (active),0.0603 µM (active),0.054 µM (active),0.06 µM (active),0.0473 µM (active),–,–,–,–,–,–
Nc1ccc(S(=O)(=O)Nc2nc3ccccc3nc2N2CCCCCC2)cc1,7.23 µM (inactive),16.6 µM (inactive),40.3 µM (inactive),16.6 µM (inactive),38.9 µM (inactive),32.5 µM (inactive),30.8 µM (inactive),18.3 µM (inactive),38.5 µM (inactive),31.9 µM (inactive),45.9 µM (inactive),11 µM (inactive),22.9 µM (inactive),31.8 µM (inactive),–,–,–,–,–,–
N#CC(c1nc2ccccc2nc1Cl)S(=O)(=O)c1ccccc1 (configuration not stated),–,> 100 µM (inactive),> 100 µM (inactive),65.9 µM (inactive),–,–,–,> 100 µM (inactive),> 100 µM (inactive),74 µM (inactive),> 100 µM (inactive),39.8 µM (inactive),–,> 100 µM (inactive),–,> 100 µM (inactive),46.6 µM (inactive),> 100 µM (inactive),> 100 µM (inactive),> 100 µM (inactive)
C1=Cc2cccc3occ(c23)C=C1,39.9 µM (inactive),29 µM (inactive),49.3 µM (inactive),29 µM (inactive),31.8 µM (inactive),> 100 µM (inactive),> 100 µM (inactive),31.2 µM (inactive),> 100 µM (inactive),46.8 µM (inactive),> 100 µM (inactive),> 100 µM (inactive),68.7 µM (inactive),36 µM (inactive),–,–,–,–,–,–
